The record followed here is patent US20240043427A1 (Gilead Sciences, Inc., priority 2020, published 2024).

Assay [1] has as its target T1, CD73 (Homo sapiens (Human), UniProt P21589). Format: biochemical. To be noted: 1 mM NaH2PO4 in enzyme buffer, CD73 0.3 nM, AMP 15 uM.
Assay [2] concerns the target T1, CD73. Nature of the assay: MDA-MB-231 Cell Based CD73 Activity Assay (DMEM). The following applies: MDA-MB-231-GFP cells, DMEM medium with 10% human plasma, 200 uM AMP.

In general, IC50 refers to the point on the concentration scale where inhibition reaches its midpoint. The low end stands for inhibition by little substance, the high end for a need for much substance. One may read the EC50 as the midpoint of the concentration-response curve. A high value points to a less potent agent.

T1 sequence (P21589 27-574): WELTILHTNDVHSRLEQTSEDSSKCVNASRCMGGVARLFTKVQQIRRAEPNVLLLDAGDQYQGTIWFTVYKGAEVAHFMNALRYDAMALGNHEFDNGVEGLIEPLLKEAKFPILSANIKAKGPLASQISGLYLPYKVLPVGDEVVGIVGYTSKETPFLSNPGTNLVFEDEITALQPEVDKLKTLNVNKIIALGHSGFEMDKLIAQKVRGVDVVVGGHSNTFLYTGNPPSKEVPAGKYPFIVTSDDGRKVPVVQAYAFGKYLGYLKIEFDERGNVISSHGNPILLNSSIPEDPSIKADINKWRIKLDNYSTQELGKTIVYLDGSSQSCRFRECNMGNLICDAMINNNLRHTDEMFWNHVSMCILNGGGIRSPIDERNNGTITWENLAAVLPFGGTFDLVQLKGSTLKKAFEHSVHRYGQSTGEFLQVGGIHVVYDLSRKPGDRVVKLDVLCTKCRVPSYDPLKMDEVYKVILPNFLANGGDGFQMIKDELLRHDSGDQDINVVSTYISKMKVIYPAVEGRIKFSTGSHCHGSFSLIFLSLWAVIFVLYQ

On CD73 [1], `O=c1[nH]cc(-c2cc([C@H]3C[C@@H]3c3cccnc3)c3nccn3n2)c(=O)[nH]1` [Example 162, 5-(8-((1S,2S)-2-(pyridin-3-yl)cyclopropyl)imidazo[1,2-b]pyridazin-6-yl)pyrimidine-2,4(1H,3H)-dione] gave an IC50 of 0.00164 µM. On CD73 [2], this compound came in with an EC50 of 0.00441 µM.
Take `O=c1[nH]cc(-c2cc(N3CCC(F)(C(F)(F)F)C3)c3nccn3n2)c(=O)[nH]1` (stereo not shown) [Example 169, 5-(8-(3-fluoro-3-(trifluoromethyl)pyrrolidin-1-yl)imidazo[1,2-b]pyridazin-6-yl)pyrimidine-2,4(1H,3H)-dione]: the concentration for half-maximal inhibition (IC50) at CD73 [1] was 0.0739 µM. The same compound gave an EC50 at CD73 [2] of 0.189 µM.
On CD73 [1], `O=c1[nH]cc(-c2cc(N3CC(C(F)F)C4(CC4)C3)c3nccn3n2)c(=O)[nH]1` (stereo not shown) [Example 170, 5-(8-(7-(difluoromethyl)-5-azaspiro[2.4]heptan-5-yl)imidazo[1,2-b]pyridazin-6-yl)pyrimidine-2,4(1H,3H)-dione] registered an IC50 of 0.0354 µM. This compound also had an EC50 on CD73 [2] of 0.136 µM.
As to `O=c1[nH]cc(-c2cc(N3CC(F)C4(CC4)C3)c3nccn3n2)c(=O)[nH]1` (stereo not shown) [Example 171, 5-(8-(7-fluoro-5-azaspiro[2.4]heptan-5-yl)imidazo[1,2-b]pyridazin-6-yl)pyrimidine-2,4(1H,3H)-dione], the midpoint of inhibition at CD73 [1], the IC50, lay at 0.00317 µM. The compound further yielded an EC50 on CD73 [2] of 0.0141 µM.
In turn, `COc1ccc(C2CCN(c3cc(-c4c[nH]c(=O)[nH]c4=O)nn4ccnc34)C2)cc1` (stereo not shown) [Example 173, 5-(8-(3-(4-methoxyphenyl)pyrrolidin-1-yl)imidazo[1,2-b]pyridazin-6-yl)pyrimidine-2,4(1H,3H)-dione] yielded a half-inhibitory concentration (IC50) against CD73 [1] of 0.00359 µM. On CD73 [2], this compound yielded an EC50 of 0.0882 µM.
`CC(C)[C@@H]1CCN(c2cc(-c3c[nH]c(=O)[nH]c3=O)nn3ccnc23)C1` [Example 174, (S)-5-(8-(3-isopropylpyrrolidin-1-yl)imidazo[1,2-b]pyridazin-6-yl)pyrimidine-2,4(1H,3H)-dione] showed an IC50 against CD73 [1] of 0.0689 µM. Besides, a half-maximal effect on CD73 [2] (EC50) was put at 0.214 µM.
For `O=c1[nH]cc(-c2cc(N3CC[C@@H](C(F)(F)F)C3)c3nccn3n2)c(=O)[nH]1` [Example 175, (R)-5-(8-(3-(trifluoromethyl)pyrrolidin-1-yl)imidazo[1,2-b]pyridazin-6-yl)pyrimidine-2,4(1H,3H)-dione] the same measures were 0.0036 µM and 0.0231 µM.
For `O=c1[nH]cc(-c2cc(N3CCC(F)(F)C3)c3ncc(F)n3n2)c(=O)[nH]1` [Example 176, 5-(8-(3,3-difluoropyrrolidin-1-yl)-3-fluoroimidazo[1,2-b]pyridazin-6-yl)pyrimidine-2,4(1H,3H)-dione] the same measures were 0.011 µM and 0.0595 µM.
`O=c1[nH]cc(-c2cc(N3C[C@@H](F)[C@@H](F)C3)c3ncc(F)n3n2)c(=O)[nH]1` [Example 177, 5-(8-((3R,4S)-3,4-difluoropyrrolidin-1-yl)-3-fluoroimidazo[1,2-b]pyridazin-6-yl)pyrimidine-2,4(1H,3H)-dione] yielded an IC50 against CD73 [1] of 0.00727 µM. At CD73 [2], this compound returned an EC50 of 0.0333 µM.
On to `CC1(C(F)(F)F)CCN(c2cc(-c3c[nH]c(=O)[nH]c3=O)nn3ccnc23)C1` (stereo not shown) [Example 185, 5-[8-[3-methyl-3-(trifluoromethyl)pyrrolidin-1-yl]imidazo[1,2-b]pyridazin-6-yl]-1H-pyrimidine-2,4-dione], for which the IC50 against CD73 [1] worked out at 0.0135 µM. The same compound showed an EC50 at CD73 [2] of 0.0574 µM.
For `C[C@@]1(F)CCN(c2cc(-c3c[nH]c(=O)[nH]c3=O)nn3ccnc23)C1` [Example 186, 5-[8-[(3R)-3-fluoro-3-methyl-pyrrolidin-1-yl]imidazo[1,2-b]pyridazin-6-yl]-1H-pyrimidine-2,4-dione] the same measures were 0.00757 µM and 0.0223 µM.
With `O=c1[nH]cc(-c2cc(N3CC[C@@H](OC(F)(F)F)C3)c3nccn3n2)c(=O)[nH]1` [Example 187, 5-[8-[(3R)-3-(trifluoromethoxy)pyrrolidin-1-yl]imidazo[1,2-b]pyridazin-6-yl]-1H-pyrimidine-2,4-dione], on CD73 [1], the midpoint of inhibition, the IC50, lay at 0.00276 µM. Moreover, the midpoint of the response at CD73 [2], the EC50, lay at 0.0126 µM.
On CD73 [1], `COCC1(F)CCN(c2cc(-c3c[nH]c(=O)[nH]c3=O)nn3ccnc23)C1` (stereo not shown) [Example 188, 5-[8-[3-fluoro-3-(methoxymethyl)pyrrolidin-1-yl]imidazo[1,2-b]pyridazin-6-yl]-1H-pyrimidine-2,4-dione] showed an IC50 of 0.0175 µM. Besides, the EC50 on CD73 [2] is 0.0625 µM.
For `COC1(C(F)(F)F)CCN(c2cc(-c3c[nH]c(=O)[nH]c3=O)nn3ccnc23)C1` (stereo not shown) [Example 189, 5-[8-[3-methoxy-3-(trifluoromethyl)pyrrolidin-1-yl]imidazo[1,2-b]pyridazin-6-yl]-1H-pyrimidine-2,4-dione] the same measures were 0.0181 µM and 0.049 µM.
For `O=c1[nH]cc(-c2cc(N3CCC4(CC4)C3)c3nccn3n2)c(=O)[nH]1` [Example 190, 5-[8-(5-azaspiro[2.4]heptan-5-yl)imidazo[1,2-b]pyridazin-6-yl]-1H-pyrimidine-2,4-dione] the same measures were 0.00305 µM and 0.0128 µM.
On CD73 [1], `C[C@]1(F)CCN(c2cc(-c3c[nH]c(=O)[nH]c3=O)nn3ccnc23)C1` [Example 191, 5-[8-[(3S)-3-fluoro-3-methyl-pyrrolidin-1-yl]imidazo[1,2-b]pyridazin-6-yl]-1H-pyrimidine-2,4-dione] had an IC50 of 0.0218 µM. Moreover, the EC50 at CD73 [2] is 0.0458 µM.
Compound `C[C@@H]1CN(c2cc(-c3c[nH]c(=O)[nH]c3=O)nn3ccnc23)C[C@H]1C(F)(F)F` [Example 193, 5-[8-[(3S,4S)-3-methyl-4-(trifluoromethyl)pyrrolidin-1-yl]imidazo[1,2-b]pyridazin-6-yl]-1H-pyrimidine-2,4-dione] registered an IC50 on CD73 [1] of 0.151 µM. Moreover, at CD73 [2], the midpoint of the response, the EC50, lay at 0.682 µM.
Compound `COc1ccc(C2CN(c3cc(-c4c[nH]c(=O)[nH]c4=O)nn4ccnc34)CC2(F)F)cc1` (stereo not shown) [Example 194, 5-[8-[3,3-difluoro-4-(4-methoxyphenyl)pyrrolidin-1-yl]imidazo[1,2-b]pyridazin-6-yl]-1H-pyrimidine-2,4-dione] returned a half-inhibitory concentration (IC50) at CD73 [1] of 0.00332 µM. In addition, the 50% effective concentration (EC50) on CD73 [2] is 0.469 µM.
For `N#CC1(F)CCN(c2cc(-c3c[nH]c(=O)[nH]c3=O)nn3ccnc23)C1` (stereo not shown) [Example 195, 1-[6-(2,4-dioxo-1H-pyrimidin-5-yl)imidazo[1,2-b]pyridazin-8-yl]-3-fluoro-pyrrolidine-3-carbonitrile] the same measures were 0.0629 µM and 0.218 µM.
For `O=c1[nH]cc(-c2cc(N3CC[C@H](OC(F)(F)F)C3)c3nccn3n2)c(=O)[nH]1` [Example 196, 5-[8-[(3S)-3-(trifluoromethoxy)pyrrolidin-1-yl]imidazo[1,2-b]pyridazin-6-yl]-1H-pyrimidine-2,4-dione] the same measures were 0.0986 µM and 0.243 µM.
At CD73 [1], `O=c1[nH]cc(-c2cc(N3C[C@H](OC(F)F)C(F)(F)C3)c3nccn3n2)c(=O)[nH]1` [Example 201, 5-[8-[(4S)-4-(difluoromethoxy)-3,3-difluoro-pyrrolidin-1-yl]imidazo[1,2-b]pyridazin-6-yl]-1H-pyrimidine-2,4-dione] gave an IC50 of 0.00111 µM. The EC50 on CD73 [2] was determined as 0.00639 µM.
The compound `O=c1[nH]cc(-c2cc(N3CC(OC(F)F)C(F)(F)C3)c3nccn3n2)c(=O)[nH]1` (stereo not shown) [Example 202, 5-[8-[4-(difluoromethoxy)-3,3-difluoro-pyrrolidin-1-yl]imidazo[1,2-b]pyridazin-6-yl]-1H-pyrimidine-2,4-dione] registered an IC50 at CD73 [1] of 0.00104 µM. Further, the EC50 at CD73 [2] was 0.00425 µM.
For `COc1ncc(-c2cc(N3CC(OCC(F)(F)F)C(F)(F)C3)c3nccn3n2)c(OC)n1` (stereo not shown) [Example 203, 8-[3,3-difluoro-4-(2,2,2-trifluoroethoxy)pyrrolidin-1-yl]-6-(2,4-dimethoxypyrimidin-5-yl)imidazo[1,2-b]pyridazine] the same measures were 0.00303 µM and 0.0103 µM.
For `CN(C)C(=O)COC1CN(c2cc(-c3c[nH]c(=O)[nH]c3=O)nn3ccnc23)CC1(F)F` (stereo not shown) [Example 204, 2-[1-[6-(2,4-dioxo-1H-pyrimidin-5-yl)imidazo[1,2-b]pyridazin-8-yl]-4,4-difluoro-pyrrolidin-3-yl]oxy-N,N-dimethyl-acetamide] the same measures were 0.00163 µM and 0.00931 µM.
For the compound `CC(=O)NC1CN(c2cc(-c3c[nH]c(=O)[nH]c3=O)nn3ccnc23)CC1(F)F` (stereo not shown) [Example 205, N-[1-[6-(2,4-dioxo-1H-pyrimidin-5-yl)imidazo[1,2-b]pyridazin-8-yl]-4,4-difluoro-pyrrolidin-3-yl]acetamide], the IC50 at CD73 [1] came to 0.00442 µM. Further, on CD73 [2], the concentration for a half-maximal effect (EC50) is 0.016 µM.
The corresponding values for `O=C(NC1CN(c2cc(-c3c[nH]c(=O)[nH]c3=O)nn3ccnc23)CC1(F)F)OCC(F)(F)F` (stereo not shown) [Example 206, 2,2,2-trifluoroethyl N-[1-[6-(2,4-dioxo-1H-pyrimidin-5-yl)imidazo[1,2-b]pyridazin-8-yl]-4,4-difluoro-pyrrolidin-3-yl]carbamate] are 0.00497 µM and 0.0287 µM.
The corresponding values for `O=C(NC1CN(c2cc(-c3c[nH]c(=O)[nH]c3=O)nn3ccnc23)CC1(F)F)OCC1CC1` (stereo not shown) [Example 207, cyclopropylmethyl N-[1-[6-(2,4-dioxo-1H-pyrimidin-5-yl)imidazo[1,2-b]pyridazin-8-yl]-4,4-difluoro-pyrrolidin-3-yl]carbamate] are 0.00605 µM and 0.0203 µM.
The corresponding values for `O=C(NC1CN(c2cc(-c3c[nH]c(=O)[nH]c3=O)nn3ccnc23)CC1(F)F)OCC(F)F` (stereo not shown) [Example 208, 2,2-difluoroethyl N-[1-[6-(2,4-dioxo-1H-pyrimidin-5-yl)imidazo[1,2-b]pyridazin-8-yl]-4,4-difluoro-pyrrolidin-3-yl]carbamate] are 0.00588 µM and 0.0254 µM.
On to `O=C(NC1CN(c2cc(-c3c[nH]c(=O)[nH]c3=O)nn3ccnc23)CC1(F)F)c1ccccc1` (stereo not shown) [Example 209, N-[1-[6-(2,4-dioxo-1H-pyrimidin-5-yl)imidazo[1,2-b]pyridazin-8-yl]-4,4-difluoro-pyrrolidin-3-yl]benzamide], for which it took 0.0028 µM to reach half-maximal inhibition at CD73 [1] (IC50). For the same compound, the EC50 on CD73 [2] was found to be 0.0242 µM.
